From patent US20100120050A1, “Biomarkers For Assessing Altherosclerotic Potential” (ENTELOS, INC., priority 2008, published 2010)
Like-named read-outs stand apart in the source and are kept apart here.

System: hepatic genes (liver)
Method: While the molecular target for PPARγ is not in the liver, it represents the effects of changes in metabolism of the whole animal, which impact liver lipoprotein production and clearance.
Male Sprague-Dawley (Crl:CD® (SD)(IGS)BR) rats (Charles River Laboratories, Portage, Mich.), weight matched, 7 to 8 weeks of age, were housed individually in hanging, stainless steel, wire-bottom cages in a temperature (66-77° F.), light (12-hour dark/light cycle) and humidity (30-70%) controlled room. Water and rodent diet were available ad libitum throughout the 5 day acclimatization period and during the 5 day treatment period. Housing and treatment of the animals were in accordance with regulations outlined in the USDA Animal Welfare Act (9 CFR Parts 1, 2 and 3).
Rats (three per group) were dosed daily at either a low or high dose. […] Animals were necropsied on days 0.25, 1, 3, and 5. Up to 13 tissues (e.g., liver, kidney, heart, bone marrow, blood, spleen, brain, intestine, glandular and nonglandular stomach, lung, muscle, and gonads) were collected for histopathological evaluation and microarray expression profiling on the Affymetrix Rat Whole Genome RG230 v2 platform. In addition, a clinical pathology panel consisting of 37 clinical chemistry and hematology parameters was generated from blood samples collected on days 3 and 5.
Gene expression profiling, data processing and quality control were performed using protocols recommended by. Briefly, liver samples from 3 rats were chosen at random from each treatment and control group for each timepoint for expression profile analysis on the Affymetrix Rat Whole Genome RG230 v2 microarray (Affymetrix, Santa Clara, Calif.). Log transformed signal data for all probes were array-wise normalized using the Affymetrix MASS algorithm. Expression log ratios of base 10 (log(10) ratios) were computed as the difference between the logs of the averaged normalized experimental signals and the averaged normalized time-matched vehicle control signals for each gene.

CCc1ccc(CCOc2ccc(CC3SC(=O)NC3=O)cc2)nc1 (stereo not drawn) [pioglitazone]
Average Log (10) Ratio: L-3-hydroxyacyl-Coenzyme A dehydrogenase, short chain (rat liver, probe AA891362, Rn.92789, oral gavage, experiments of Table 3): 0.375 | Average Log (10) Ratio: acetyl-coenzyme A acetyltransferase 1 (rat liver, probe AA899304, Rn.4054, oral gavage, experiments of Table 3): 0.171 | Average Log (10) Ratio: transferrin (rat liver, probe AA945548, Rn.91296, oral gavage, experiments of Table 3): −0.222 | Average Log (10) Ratio: sterol regulatory element binding factor 1 (rat liver, probe AF286470, Rn.801, oral gavage, experiments of Table 3): −0.118 | Average Log (10) Ratio: CCAAT/enhancer binding protein (C/EBP), delta (rat liver, probe AI176576, Rn.6975, oral gavage, experiments of Table 3): −0.035 | Average Log (10) Ratio: fatty acid synthase (rat liver, probe AI179334, Rn.9486, oral gavage, experiments of Table 3): −0.411 | Average Log (10) Ratio: peroxisome proliferator activated receptor alpha (rat liver, probe AI385341, Rn.9753, oral gavage, experiments of Table 3): 0.247 | Average Log (10) Ratio: perilipin (rat liver, probe AI406700, Rn.9737, oral gavage, experiments of Table 3): −0.187 | Average Log (10) Ratio: monoglyceride lipase (rat liver, probe AI713204, Rn.40396, oral gavage, experiments of Table 3): −0.118 | Average Log (10) Ratio: phosphatidylinositol 3-kinase, C2 domain containing, gamma polypeptide (rat liver, probe AW526669, Rn.169550, oral gavage, experiments of Table 3): −0.240 | Average Log (10) Ratio: monoglyceride lipase (rat liver, probe AY081195, Rn.40396, oral gavage, experiments of Table 3): −0.131 | Average Log (10) Ratio: mitogen-activated protein kinase 8 (rat liver, probe BE105603, Rn.4090, oral gavage, experiments of Table 3): 0.332 | Average Log (10) Ratio: ELOVL family member 6, elongation of long chain fatty acids (yeast) (rat liver, probe BF396857, Rn.46942, oral gavage, experiments of Table 3): −0.225 | Average Log (10) Ratio: sterol regulatory element binding factor 1 (rat liver, probe BF398848, Rn.801, oral gavage, experiments of Table 3): −0.092 | Average Log (10) Ratio: RIKEN cDNA 1500016L11 (DBSS) (rat liver, probe BF407188, Rn.15135, oral gavage, experiments of Table 3): −0.149 | Average Log (10) Ratio: monoglyceride lipase (rat liver, probe BG372713, Rn.40396, oral gavage, experiments of Table 3): −0.110 | Average Log (10) Ratio: Pyruvate carboxylase (rat liver, probe BG376902, Rn.11094, oral gavage, experiments of Table 3): 0.300 | Average Log (10) Ratio: acetyl CoA transferase-like (DBSS) (rat liver, probe BG377636, Rn.98393, oral gavage, experiments of Table 3): 0.071 | Average Log (10) Ratio: phospholipid transfer protein (DBSS) (rat liver, probe BI278687, Rn.117434, oral gavage, experiments of Table 3): −0.045 | Average Log (10) Ratio: guanine nucleotide binding protein, alpha stimulating, olfactory type (rat liver, probe BI281656, Rn.39132, oral gavage, experiments of Table 3): −0.386 | Average Log (10) Ratio: acetyl-Coenzyme A acyltransferase 2 (mitochondrial 3-oxoacyl-Coenzyme A thiolase) (rat liver, probe BI282488, Rn.3786, oral gavage, experiments of Table 3): 0.046 | Average Log (10) Ratio: glycerol-3-phosphate acyltransferase, mitochondrial (rat liver, probe BI288209, Rn.44456, oral gavage, experiments of Table 3): −0.319 | Average Log (10) Ratio: elongation of very long chain fatty acids (FEN1/Elo2, SUR4/Elo3, yeast)-like 3 (DBSS) (rat liver, probe BI292438, Rn.79322, oral gavage, experiments of Table 3): 0.334 | Average Log (10) Ratio: NCI_CGAP_Emb2 cDNA clone IMAGE: 4176354 (rat liver, probe BI850137, Rn.83595, oral gavage, experiments of Table 3): 0.315 | Average Log (10) Ratio: pyruvate dehydrogenase kinase, isoenzyme 3 (mapped) (rat liver, probe BM389330, Rn.18101, oral gavage, experiments of Table 3): −0.142 | Average Log (10) Ratio: 3-hydroxy-3-methylglutaryl-Coenzyme A reductase (rat liver, probe BM390399, Rn.9437, oral gavage, experiments of Table 3): −0.018 | Average Log (10) Ratio: sulfotransferase family 2A, dehydroepiandrosterone (DHEA)-preferring, member 1 (rat liver, probe D14989, Rn.91378, oral gavage, experiments of Table 3): 0.112 | Average Log (10) Ratio: apolipoprotein E (rat liver, probe J02582, Rn.32351, oral gavage, experiments of Table 3): 0.410 | Average Log (10) Ratio: stearoyl-Coenzyme A desaturase 1 (rat liver, probe J02585, Rn.1023, oral gavage, experiments of Table 3): 0.056 | Average Log (10) Ratio: apolipoprotein B (rat liver, probe M14952, Rn.33815, oral gavage, experiments of Table 3): −0.303 | Average Log (10) Ratio: NCI_CGAP_Emb2 cDNA clone IMAGE: 4176354 (rat liver, probe M15114, Rn.83595, oral gavage, experiments of Table 3): 0.052 | Average Log (10) Ratio: malic enzyme 1 (rat liver, probe M30596, Rn.161920, oral gavage, experiments of Table 3): −0.083 | Average Log (10) Ratio: glucokinase (rat liver, probe NM_012565, Rn.10447, oral gavage, experiments of Table 3): −0.220 | Average Log (10) Ratio: serine (or cysteine) peptidase inhibitor, clade E, member 1 (rat liver, probe NM_012620, Rn.29367, oral gavage, experiments of Table 3): 0.049 | Average Log (10) Ratio: adrenergic receptor, beta 1 (rat liver, probe NM_012701, Rn.87064, oral gavage, experiments of Table 3): 0.205 | Average Log (10) Ratio: hexokinase 2 (rat liver, probe NM_012735, Rn.91375, oral gavage, experiments of Table 3): 0.300 | Average Log (10) Ratio: guanylate cyclase 1, soluble, beta 3 (rat liver, probe NM_012769, Rn.87228, oral gavage, experiments of Table 3): −0.120 | Average Log (10) Ratio: guanylate cyclase 1, soluble, beta 2 (rat liver, probe NM_012770, Rn.10933, oral gavage, experiments of Table 3): −0.120 | Average Log (10) Ratio: mitogen activated protein kinase 10 (rat liver, probe NM_012806, Rn.9911, oral gavage, experiments of Table 3): 0.229 | Average Log (10) Ratio: carnitine palmitoyltransferase 2 (rat liver, probe NM_012930, Rn.11389, oral gavage, experiments of Table 3): 0.030 | Average Log (10) Ratio: 3-hydroxy-3-methylglutaryl-Coenzyme A reductase (rat liver, probe NM_013134, Rn.9437, oral gavage, experiments of Table 3): 0.086 | Average Log (10) Ratio: transforming growth factor, beta 3 (rat liver, probe NM_013174, Rn.7018, oral gavage, experiments of Table 3): −0.086 | Average Log (10) Ratio: carnitine palmitoyltransferase 1b, muscle (rat liver, probe NM_013200, Rn.6028, oral gavage, experiments of Table 3): 0.125 | Average Log (10) Ratio: solute carrier family 10, member 2 (rat liver, probe NM_017222, Rn.85891, oral gavage, experiments of Table 3): −0.206 | Average Log (10) Ratio: mitogen-activated protein kinase 9 (rat liver, probe NM_017322, Rn.9910, oral gavage, experiments of Table 3): −0.209 | Average Log (10) Ratio: acyl-Coenzyme A oxidase 1, palmitoyl (rat liver, probe NM_017340, Rn.31796, oral gavage, experiments of Table 3): 0.165 | Average Log (10) Ratio: transforming growth factor, beta 1 (rat liver, probe NM_021578, Rn.40136, oral gavage, experiments of Table 3): −0.047 | Average Log (10) Ratio: protein kinase, AMP-activated, beta 2 non-catalytic subunit (rat liver, probe NM_022627, Rn.15423, oral gavage, experiments of Table 3): −0.432 | Average Log (10) Ratio: transforming growth factor, beta 2 (rat liver, probe NM_031131, Rn.24539, oral gavage, experiments of Table 3): −0.378 | Average Log (10) Ratio: carnitine palmitoyltransferase 1a, liver (rat liver, probe NM_031559, Rn.2856, oral gavage, experiments of Table 3): 0.341 | Average Log (10) Ratio: protein kinase, AMP-activated, beta 1 non-catalytic subunit (rat liver, probe NM_031976, Rn.3619, oral gavage, experiments of Table 3): −0.188 | Average Log (10) Ratio: ATP-binding cassette, sub-family D (ALD), member 1 (DBSS) (rat liver, probe NM_033352, Rn.177278, oral gavage, experiments of Table 3): 0.292 | Average Log (10) Ratio: insulin-like growth factor binding protein, acid labile subunit (rat liver, probe NM_053329, Rn.164865, oral gavage, experiments of Table 3): −0.263 | Average Log (10) Ratio: pyruvate dehydrogenase kinase, isoenzyme 4 (rat liver, probe NM_053551, Rn.30070, oral gavage, experiments of Table 3): −0.148 | Average Log (10) Ratio: phosphatidylinositol 3-kinase, C2 domain containing, gamma polypeptide (rat liver, probe NM_053923, Rn.169550, oral gavage, experiments of Table 3): −0.055 | Average Log (10) Ratio: pyruvate dehydrogenase E1 alpha 2 (rat liver, probe NM_053994, Rn.11126, oral gavage, experiments of Table 3): −0.171 | Average Log (10) Ratio: nuclear receptor subfamily 0, group B, member 2 (rat liver, probe NM_057133, Rn.10712, oral gavage, experiments of Table 3): 0.034 | Average Log (10) Ratio: hydroxyacyl-Coenzyme A dehydrogenase/3-ketoacyl-Coenzyme A thiolase/enoyl-Coenzyme A hydratase (trifunctional protein), beta subunit (rat liver, probe NM_133618, Rn.11253, oral gavage, experiments of Table 3): 0.182 | Average Log (10) Ratio: ELOVL family member 5, elongation of long chain fatty acids (yeast) (rat liver, probe NM_134382, Rn.4243, oral gavage, experiments of Table 3): −0.191 | Average Log (10) Ratio: Glycerol-3-phosphate dehydrate dehydrogenase (mtGPDH) mRNA, 3′UTR (rat liver, probe U08027, Rn.89705, oral gavage, experiments of Table 3): 0.026 | Average Log (10) Ratio: glycerol-3-phosphate acyltransferase, mitochondrial (rat liver, probe U36771, Rn.44456, oral gavage, experiments of Table 3): −0.239 | Average Log (10) Ratio: Cytochrome P450, family 2, subfamily b, polypeptide 2 (rat, in vivo, po): 0.275 | Average Log (10) Ratio: cytochrome P450, family 2, subfamily b, polypeptide 13 (rat, in vivo, po): −0.015 | Average Log (10) Ratio: cytochrome P450, family 3, subfamily a, polypeptide 13 (rat, in vivo, po): −0.242 | Average Log (10) Ratio: cytochrome P450, family 7, subfamily a, polypeptide 1 (rat, in vivo, po): 0.320 | Average Log (10) Ratio: cytochrome P450, family 8, subfamily b, polypeptide 1 (rat, in vivo, po): 0.351
